Read-outs that look alike come from different tables or passages of the source.

Here are results for 34 compounds from patent publication US10494332B2, “Protein tyrosine phosphatases or SHP2 inhibitors and uses thereof” (Indiana University Research and Technology Corporation, priority 2015, dated 2019).

Common to all, as to assay type: biochemical
One assay deals with T1, SHP2 (Homo sapiens, UniProt Q06124).
T1 sequence (Q06124 224-528): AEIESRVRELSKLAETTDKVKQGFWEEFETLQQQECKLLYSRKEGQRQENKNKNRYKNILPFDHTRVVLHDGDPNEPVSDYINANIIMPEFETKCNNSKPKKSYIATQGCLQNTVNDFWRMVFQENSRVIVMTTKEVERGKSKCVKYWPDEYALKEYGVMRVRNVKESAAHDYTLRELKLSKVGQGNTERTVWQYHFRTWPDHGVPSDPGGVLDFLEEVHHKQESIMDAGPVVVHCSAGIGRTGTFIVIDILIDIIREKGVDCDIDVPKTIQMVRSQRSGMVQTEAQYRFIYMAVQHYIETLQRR
Nature of the assay: SHP2 phosphatase inhibition assay (pNPP). To be noted: for IC50: read-out: IC50 SHP2.

The target of a further assay is T2, HePTP (Homo sapiens, UniProt P35236).
T2 sequence (P35236 1-360): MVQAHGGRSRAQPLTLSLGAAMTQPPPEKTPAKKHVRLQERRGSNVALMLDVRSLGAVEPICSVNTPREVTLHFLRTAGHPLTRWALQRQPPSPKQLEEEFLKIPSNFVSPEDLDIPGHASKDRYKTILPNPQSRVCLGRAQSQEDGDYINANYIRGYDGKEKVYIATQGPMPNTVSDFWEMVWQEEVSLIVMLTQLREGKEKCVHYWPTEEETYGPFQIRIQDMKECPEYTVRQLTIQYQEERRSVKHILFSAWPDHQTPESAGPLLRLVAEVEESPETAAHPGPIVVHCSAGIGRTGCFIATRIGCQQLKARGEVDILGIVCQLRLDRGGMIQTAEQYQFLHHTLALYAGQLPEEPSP
Kind of assay: PTP inhibition assay (pNPP). The settings on record: […]; HePTP.

The next assay concerns the target T3, LYP (Homo sapiens, UniProt Q9Y2R2).
T3 sequence (Q9Y2R2 1-807): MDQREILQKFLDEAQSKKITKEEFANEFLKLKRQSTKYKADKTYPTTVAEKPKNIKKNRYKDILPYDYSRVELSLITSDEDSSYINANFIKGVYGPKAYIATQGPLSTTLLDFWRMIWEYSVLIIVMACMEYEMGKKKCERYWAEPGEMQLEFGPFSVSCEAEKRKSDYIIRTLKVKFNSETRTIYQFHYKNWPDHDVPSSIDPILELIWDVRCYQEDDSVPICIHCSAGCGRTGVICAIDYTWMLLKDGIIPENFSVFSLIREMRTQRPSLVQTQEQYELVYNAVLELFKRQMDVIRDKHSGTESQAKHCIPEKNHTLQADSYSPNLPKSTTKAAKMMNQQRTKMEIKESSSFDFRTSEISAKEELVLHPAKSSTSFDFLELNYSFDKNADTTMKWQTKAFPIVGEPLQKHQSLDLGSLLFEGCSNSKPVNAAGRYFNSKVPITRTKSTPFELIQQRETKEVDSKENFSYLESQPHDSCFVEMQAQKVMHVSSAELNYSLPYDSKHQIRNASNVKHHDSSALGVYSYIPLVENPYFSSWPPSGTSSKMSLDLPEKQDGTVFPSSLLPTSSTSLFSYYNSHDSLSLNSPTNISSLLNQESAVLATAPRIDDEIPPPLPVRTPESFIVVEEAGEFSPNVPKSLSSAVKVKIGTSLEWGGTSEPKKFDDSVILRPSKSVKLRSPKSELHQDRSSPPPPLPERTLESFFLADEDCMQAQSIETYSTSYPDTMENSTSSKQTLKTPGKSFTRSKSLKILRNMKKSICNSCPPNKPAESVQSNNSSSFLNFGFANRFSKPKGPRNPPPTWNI
Kind of assay: PTP inhibition assay (pNPP). The settings on record: […]; LYP.

In the next assay the target is T4, LMWPTP (Homo sapiens, UniProt P24666).
T4 sequence (P24666 1-158): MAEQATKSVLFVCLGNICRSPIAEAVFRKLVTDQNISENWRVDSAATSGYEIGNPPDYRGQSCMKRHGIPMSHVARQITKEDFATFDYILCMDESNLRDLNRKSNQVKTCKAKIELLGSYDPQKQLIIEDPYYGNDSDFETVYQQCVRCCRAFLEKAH
Kind of assay: PTP inhibition assay (pNPP).

Setting [1] is: Example 9: SHP2 catalytic domain 20 nM, pNPP 3 mM, pH 7.0, 25° C.

Usually IC50 stands for the point on the concentration scale where inhibition reaches its midpoint. For `O=C(Nc1ccc(NC(=O)C(c2ccccc2)S(=O)(=O)O)cc1)c1ccc(-c2ccc(Cl)cc2Cl)o1` (stereo not shown) [Compound L319-04-B34], at SHP2 (pNPP at Km, pH 7.0, 25° C.), the IC50 worked out at 7.9 µM.
Turning to `O=C(Nc1ccc(N2CCOCC2)cc1)C(c1ccccc1F)S(=O)(=O)O` (stereo not shown) [Compound L319-06-M68], the IC50 at SHP2 ([…], SHP2) is greater than 100 µM; at HePTP, 22 µM; against LYP it was greater than 100 µM; at LMWPTP ([…], LMWPTP), greater than 100 µM.
For the compound `O=C(Nc1ccc(N2CCOCC2)cc1)C(c1ccccc1Cl)S(=O)(=O)O` (stereo not shown) [Compound L319-07-M68], the IC50 is greater than 100 µM at SHP2 ([…], SHP2); 11 µM against HePTP; greater than 100 µM against LYP; greater than 100 µM against LMWPTP ([…], LMWPTP).
For the compound `O=C(NNc1ccccc1)C(c1ccc([N+](=O)[O-])cc1)S(=O)(=O)O` (stereo not shown) [Compound L319-08-N58], the IC50 came out at 7.28 µM on SHP2 ([…], SHP2); 16 µM on HePTP; 9.9 µM on LYP; 11 µM against LMWPTP ([…], LMWPTP).
For `Cc1ccc(C(C(=O)Nc2ccc(N3CCOCC3)cc2)S(=O)(=O)O)cc1` (stereo not shown) [Compound L319-11-M68], in that order: greater than 100 µM, 3.2 µM, 7.6 µM and greater than 100 µM.
Consider `O=C(Nc1ccc(N2CCOCC2)cc1)C(c1ccc(Br)cc1)S(=O)(=O)O` (stereo not shown) [Compound L319-12-M68], for which the IC50 on SHP2 ([…], SHP2) was greater than 100 µM; at HePTP, 3.9 µM; against LYP, 7.43 µM; at LMWPTP ([…], LMWPTP), 21 µM.
The matching figures for `O=C(Nc1ccc(N2CCOCC2)cc1)C(c1cccc(F)c1)S(=O)(=O)O` (stereo not shown) [Compound L319-13-M68]: greater than 100 µM, 4.3 µM, 10 µM and 27 µM.
For `O=C(Nc1ccc(OCc2ccccc2)c(Cl)c1)C(c1ccc2ccccc2c1)S(=O)(=O)O` (stereo not shown) [Compound L319-14-M50], in that order: 24 µM, 25 µM, 23 µM and 28.8 µM.
The matching figures for `O=C(Nc1ccc(N2CCOCC2)cc1)C(c1ccc2ccccc2c1)S(=O)(=O)O` (stereo not shown) [Compound L319-14-M68]: greater than 100 µM, 4.5 µM, 8.3 µM and greater than 100 µM.
In the case of `CC(C)CCNC(=O)C(c1ccc2ccccc2c1)S(=O)(=O)O` (stereo not shown) [Compound L319-14-N03], the IC50 at SHP2 ([…], SHP2) is 74 µM; against HePTP, 24 µM; against LYP it was 11.6 µM; against LMWPTP ([…], LMWPTP), greater than 100 µM.
Consider `O=C(Nc1ccc(Br)c2ccccc12)C(c1ccc(-c2ccccc2)cc1)S(=O)(=O)O` (stereo not shown) [Compound L319-16-M47], for which the IC50 on SHP2 ([…], SHP2) is 24 µM; against HePTP, 21 µM; against LYP, 22 µM; against LMWPTP ([…], LMWPTP) it was 37 µM.
The matching figures for `O=C(Nc1nc2cc(Cl)ccc2o1)C(c1ccc(-c2ccccc2)cc1)S(=O)(=O)O` (stereo not shown) [Compound L319-16-M60]: 12 µM, 13 µM, 15 µM and 18 µM.
The matching figures for `O=C(C(c1ccc(-c2ccccc2)cc1)S(=O)(=O)O)N1CCc2cc(Br)ccc21` (stereo not shown) [Compound L319-16-M93]: 16 µM, 7.6 µM, 16 µM and 24 µM.
The matching figures for `O=C(NNc1ccccc1[N+](=O)[O-])C(c1ccc(-c2ccccc2)cc1)S(=O)(=O)O` (stereo not shown) [Compound L319-16-N55]: 82 µM, 43 µM, 35 µM and 90 µM.
On to `O=C(Nc1ccc(I)cc1)C(=O)Nc1ccc(NC(=O)C(c2ccccc2)S(=O)(=O)O)cc1` (stereo not shown) [Compound L319-20-M24], for which, at SHP2 (pNPP at Km, pH 7.0, 25° C.), the IC50 was 1.5 µM.
Same read-out and setting: in the case of `O=C(Nc1ccc(NC(=O)C(c2ccccc2)S(=O)(=O)O)cc1)C(=O)Nc1ccc(-c2cccs2)cc1` (stereo not shown) [Compound L319-20-M74] it was 0.9 µM.
On the same count and under the same terms, in the case of `O=C(NC1=NN=C(c2ccc(Br)cc2)C1)C(=O)Nc1ccc(NC(=O)C(c2ccccc2)S(=O)(=O)O)cc1` (stereo not shown) [Compound L319-20-M78] it was 0.7 µM; in that of `O=C(Nc1ccc(NC(=O)C(c2ccccc2)S(=O)(=O)O)cc1)C(=O)Nc1ccc(-c2ccccc2)cc1` (stereo not shown) [Compound L319-20-N08], 1.4 µM.
The same measure, in the same setting: in the case of `CC(C)c1ccc(NC(=O)C(=O)Nc2ccc(NC(=O)C(c3ccccc3)S(=O)(=O)O)cc2)cc1` (stereo not shown) [Compound L319-20-N25] it was 2.3 µM; in that of `Cc1c(Br)cc(NC(=O)C(=O)Nc2cccc(NC(=O)C(c3ccccc3)S(=O)(=O)O)c2)cc1Br` (stereo not shown) [Compound L319-22-M34], 5.7 µM.
Consider `O=C(Nc1cccc(NC(=O)C(c2ccccc2)S(=O)(=O)O)c1)C(=O)Nc1ccc(OCc2ccccc2)c(Cl)c1` (stereo not shown) [Compound L319-22-M50], for which the half-maximal inhibitory concentration (IC50) on SHP2 (pNPP at Km, pH 7.0, 25° C.) stood at 7.5 µM.
Take `O=C(Nc1cccc(Cc2ccccc2)c1)C(=O)Nc1cccc(NC(=O)C(c2ccccc2)S(=O)(=O)O)c1` (stereo not shown) [Compound L319-22-M51]: at SHP2 (pNPP at Km, pH 7.0, 25° C.), the IC50 came to 10 µM.
Regarding `O=C(NCc1ccc(NC(=O)C(c2ccccc2)S(=O)(=O)O)cc1)C(=O)Nc1ccc(-c2cccs2)cc1` (stereo not shown) [Compound L319-23-M74], the IC50 at SHP2 (pNPP at Km, pH 7.0, 25° C.) came to 3.5 µM.
Still for that read-out and setting: under `O=C(Nc1ccc(CNC(=O)C(c2ccccc2)S(=O)(=O)O)cc1)C(=O)Nc1ccc(-c2cccs2)cc1` (stereo not shown) [Compound L319-24-M74] stands 1.34 µM; under `O=C(Nc1ccc(CNC(=O)C(c2ccccc2)S(=O)(=O)O)cc1)C(=O)Nc1ccccc1-c1nc2ccccc2[nH]1` (stereo not shown) [Compound L319-24-M77], 1.1 µM.
In the case of `O=C(Nc1nc2ccccc2s1)C(Br)(c1ccccc1)S(=O)(=O)O` (stereo not shown) [Compound L319-Br1-N15], the IC50 on SHP2 ([…], SHP2) came to 13.2 µM; at HePTP, 0.2 µM.
For the compound `O=C(N1CCC(c2ccc(Cl)c(Cl)c2)CC1)C(Br)(c1ccccc1)S(=O)(=O)O` (stereo not shown) [Compound L319-Br1-N47], the IC50 was 22.8 µM at SHP2 ([…], SHP2) and 26 µM against HePTP.
Regarding `COc1ccc(CNC(=O)C(Br)(c2ccccc2)S(=O)(=O)O)c(OC)c1` (stereo not shown) [Compound L319-Br1-N76], the IC50 at SHP2 ([…], SHP2) is 9.9 µM; against HePTP, 21.7 µM.
At LMWPTP (pNPP at Km, pH 7.0, 25° C.), `O=C(CP(=O)(O)O)Nc1nc2ccccc2s1` [Compound L338N15] yielded an IC50 of 30 µM.
As to `O=C(O)C(=O)Nc1ccc(NC(=O)C(c2ccccc2)S(=O)(=O)O)cc1` (stereo not shown) [Lib-1, 2-oxo-2-((4-(2-phenyl-2-sulfoacetamido)phenyl)amino)acetic acid], the IC50 on SHP2 (setting [1]) was greater than 50 µM.
Same read-out and setting: under `O=C(O)C(=O)Nc1cccc(NC(=O)C(c2ccccc2)S(=O)(=O)O)c1` (stereo not shown) [Lib-2, 2-oxo-2-((3-(2-phenyl-2-sulfoacetamido)phenyl)amino)acetic acid] stands greater than 50 µM.
For the compound `O=C(O)C(=O)NCc1ccc(NC(=O)C(c2ccccc2)S(=O)(=O)O)cc1` (stereo not shown) [Lib-3, 2-oxo-2-((4-(2-phenyl-2-sulfoacetamido)benzyl)amino)acetic acid], the IC50 at SHP2 (setting [1]) was greater than 50 µM.
With `O=C(O)C(=O)Nc1ccc(CNC(=O)C(c2ccccc2)S(=O)(=O)O)cc1` (stereo not shown) [Lib-4, 2-oxo-2-((4-((2-phenyl-2-sulfoacetamido)methyl)phenyl)amino)acetic acid], the IC50 on SHP2 (setting [1]) was greater than 50 µM.
As to `CC1(C)S[C@@H]2[C@H](NC(=O)C(c3ccccc3)S(=O)(=O)O)C(=O)N2[C@H]1C(=O)O` (stereo partly shown) [sulbenicillin, reference compound], the “Inhibition of SHP2 at 200 μM” value on SHP2 (200 μM compound concentration) is recorded as “no activity”.
